Patent US20230240297A1, “SELECTIVE HERBICIDES BASED ON SUBSTITUTED ISOXAZOLIN CARBOXAMIDES AND CYPROSULFAMIDE” (Bayer Aktiengesellschaft, priority 2020, published 2023)

Key:
Type in all cases: in vivo, maize
[1] = system: ZEAMA Sileno; experiment: Treatment 1 day before (safener applied one day before herbicide, post-emergence); parameters: key to Reduction [Difference]: percentage points of visually scored % crop damage vs untreated control; details: for Reduction [%] / Reduction [Difference]: cyprosulfamide 100 g a.i./ha 1 day before; for HER effect + SAF: cyprosulfamide 100 g a.i./ha applied 1 day before; for HER effect + SAF / HER effect: Final assessment; for HER effect: no safener
From the text: Seeds of crops (spring wheat, TRZAS; spring barley, HORVS; maize, ZEAMA) were placed in sandy loam soil in pots of a diameter of 7-8 cm, covered with soil, and cultivated in a greenhouse under good growth conditions until plants were at the 1-3 leaf stage (BBCH 11-13). For split safener and herbicide treatment, first the safener was applied followed by the herbicide treatment on the following day. The safener and herbicides were formulated as WP and sprayed onto the green parts of the plants as an aqueous suspension at an equivalent water application rate of 300 1/ha, with addition of wetting agent and adjuvants (e.g. Mero, 1.5 1/ha; ammonium sulphate, 2 kg/ha). An equivalent set of plants was treated with the herbicides but without the prior safener treatment.
After application, the test plants were kept in the greenhouse under good growth conditions. 10 and 21 days after treatment (DAT) with the herbicide, % crop damage observed on the treated plants was scored visually in comparison to control plants that had not received any safener or herbicide treatment.

[2] = system: ZEAMA Sileno; experiment: Seed treatment with safener; post-emergence herbicide application; parameters: Reduction [Difference]: scale not given here; details: Final assessment; for Reduction [%] / Reduction [Difference]: Cyprosulfamide 0.5 g a.i./kg seed; for Reduction [Difference]: damage without safener - damage with safener; for HER effect + SAF (crop damage with safener): Cyprosulfamide seed treatment 0.5 g a.i./kg seed; for HER effect (crop damage, herbicide without safener): no safener
Procedure: For the safener seed treatment, sufficient seeds of the respective crops (spring wheat, TRZAS; spring barley, HORVS; maize, ZEAMA) were weighed into screw top glass bottles approximately twice the volume of the seeds.
The specified safeners, formulated as wettable powder (WP) were weighed out so that the specified rates (g a.i./kg seed) would be obtained, dissolved in water (1 ml water per 10 g of seeds), and added to the seeds to produce a slurry.
The bottles were capped and then placed in an overhead shaker (set at medium speed for ca. 60 minutes) so that the seeds were evenly coated with the slurry. The bottles were uncapped and the seeds were either placed on paper and dried for an interval of 3-4 hours prior to sowing, or directly sown. Seeds were placed in sandy loam soil in pots of a diameter of 7-8 cm, covered with soil, and cultivated in a greenhouse under good growth conditions.
Post-emergence application of the specified herbicides was done when the plants had reached growth stage BBCH11-13, on two sets of plants:
a) seed treatment with safener, as described above b) no safener treatment
The herbicides were formulated as WP and sprayed onto the green parts of the plants as an aqueous suspension at an equivalent water application rate of 300 1/ha, with addition of wetting agent and adjuvants (e.g. Mero, 1.5 1/ha; ammonium sulphate, 2 kg/ha)
After application, the test plants were kept in the greenhouse under good growth conditions.
Values in the table below are mean values of at least 2 replicates.

[3] = system: ZEAMA Sileno; experiment: Tank-mix; post-emergence, crop damage with and without safener; details: for HER effect + SAF / HER effect: Final assessment; for HER effect: no safener
Procedure: (§1) Seeds of crops (spring wheat, TRZAS; spring barley, HORVS; maize, ZEAMA) were placed in sandy loam soil in peat pots, covered with soil and cultivated in a greenhouse under good growth conditions. Two to three weeks after sowing, the test plants were treated at the 1 to 3-leaf stage. The herbicide/safener active compound combinations according to the invention, formulated as wettable powders or emulsion concentrates, and, in parallel tests, the correspondingly formulated individual active compounds were sprayed onto the green parts of the plants in various dosages using an amount of water of 300 1/ha (converted).
(§2) The pots were returned under good growing conditions in a glasshouse and a visual assessment of herbicidal effects was made at intervals from 1 to 3 weeks after herbicide application (DAT = days after treatment). Assessment was on a percentage basis in comparison with untreated control plants (0% = no injury, 100% = complete kill).

[4] = system: ZEAMA Abraxas; experiment: as above; details: for HER effect + SAF / HER effect: Final assessment; for HER effect: no safener
Procedure: as §1, §2

[5] = HER 32 g a.i./ha, cyprosulfamide 100 g a.i./ha
[6] = HER dose 32 g a.i./ha + cyprosulfamide 100 g a.i./ha tank-mix
[7] = HER 8 g a.i./ha, cyprosulfamide 50 g a.i./ha
[8] = HER dose 8 g a.i./ha + cyprosulfamide 50 g a.i./ha tank-mix

Row | SMILES | Reduction [%] ([1]; HER 32 g a.i./ha) | Reduction [Difference] ([1]; HER 32 g a.i./ha) | HER effect + SAF ([1]; HER dose 32 g a.i./ha) | HER effect ([1]; HER dose 32 g a.i./ha) | Reduction [%] ([2]; HER dose 8 g a.i./ha) | Reduction [Difference] ([2]; HER dose 8 g a.i./ha) | HER effect + SAF (crop damage with safener) ([2]; HER dose 8 g a.i./ha) | HER effect (crop damage, herbicide without safener) ([2]; HER dose 8 g a.i./ha) | Reduction [%] ([2]; HER dose 32 g a.i./ha) | Reduction [Difference] ([2]; HER dose 32 g a.i./ha) | HER effect + SAF (crop damage with safener) ([2]; HER dose 32 g a.i./ha) | HER effect (crop damage, herbicide without safener) ([2]; HER dose 32 g a.i./ha) | further results
1 | CC1(C(=O)NC2C=CC(C(=O)OCCSCc3ccccc3)C2)CC(c2cc(F)cc(F)c2)=NO1 (stereo not shown) [Example 1.27] | 67% | 40 | 20% | 60% | 83% | 25 | 5% | 30% | 75% | 45 | 15% | 60% | Reduction [%] [3, 5]: 67%; Reduction [Difference] [3, 5]: 40; HER effect + SAF [3, 6]: 20%; HER effect ([3]; HER dose 32 g a.i./ha): 60%
2 | CC1(C(=O)NC2COC(C(=O)OCc3cccc(F)c3)C2)CC(c2cc(F)cc(F)c2)=NO1 (mixture of isomers) [Example 1.76] |  |  |  |  | 100% | 22 | 0% | 22% | 74% | 20 | 7% | 27% | Reduction [%] [4, 7]: 74%; Reduction [Difference] [4, 7]: 67; Reduction [%] [4, 5]: 26%; Reduction [Difference] [4, 5]: 25; HER effect + SAF [4, 8]: 23%; HER effect ([4]; HER dose 8 g a.i./ha): 90%; HER effect + SAF [4, 6]: 70%; HER effect ([4]; HER dose 32 g a.i./ha): 95%
3 | CCOC(=O)C1C=CC(NC(=O)C2(CF)CC(c3cc(F)cc(F)c3)=NO2)C1 (stereo not shown) [Example 1.17] | 59% | 50 | 35% | 85% | 95% | 90 | 5% | 95% | 82% | 70 | 15% | 85% | Reduction [%] ([1]; HER 2 g a.i./ha): 56%; Reduction [Difference] ([1]; HER 2 g a.i./ha): 25; Reduction [%] ([1]; HER 8 g a.i./ha): 63%; Reduction [Difference] ([1]; HER 8 g a.i./ha): 60; HER effect + SAF ([1]; HER dose 2 g a.i./ha): 20%; HER effect ([1]; HER dose 2 g a.i./ha): 45%; HER effect + SAF ([1]; HER dose 8 g a.i./ha): 35%; HER effect ([1]; HER dose 8 g a.i./ha): 95%; Reduction [%] ([2]; HER dose 2 g a.i./ha): 100%; Reduction [Difference] ([2]; HER dose 2 g a.i./ha): 45; HER effect + SAF (crop damage with safener) ([2]; HER dose 2 g a.i./ha): 0%; HER effect (crop damage, herbicide without safener) ([2]; HER dose 2 g a.i./ha): 45%; Reduction [%] ([3]; HER 2 g a.i./ha, cyprosulfamide 50 g a.i./ha): 67%; Reduction [Difference] ([3]; HER 2 g a.i./ha, cyprosulfamide 50 g a.i./ha, damage without safener - damage with safener): 30; Reduction [%] [3, 7]: 53%; Reduction [Difference] [3, 7]: 50; HER effect + SAF ([3]; HER dose 2 g a.i./ha + cyprosulfamide 50 g a.i./ha tank-mix): 15%; HER effect ([3]; HER dose 2 g a.i./ha, 0% = no injury, 100% = complete kill): 45%; HER effect + SAF [3, 8]: 45%; HER effect ([3]; HER dose 8 g a.i./ha): 95%
